Data reported in US20240408053A1, “ENTERITIS-SUPPRESSING COMPOSITION” (KOBE GAKUIN EDUCATIONAL FOUNDATION, priority 2021, published 2024).
Entries after “also recorded” stand apart in the source; their conditions may differ. Marks after values point to notes of the source that are not given here.

Tests used:
Format in all cases: in vivo, mice
[1] = test system: NF-κB p65; assay: NF-κB p65 activation level in colon tissue extract by ELISA; settings: group ES: 2.0% v/v ethanol diet + 2.5 mg sesaminol per day oral, 2 weeks, vs group E
From the text: It has been reported that chronic consumption of an excessive amount of ethanol can induce inflammation associated with tumor formation in colon tissue. Therefore, in order to verify whether oral administration of sesaminol has a preventive effect on ethanol-induced colitis, the expression levels of inflammatory cytokines (TNF-α and IL-6) and chemokine (MCP-1) in the large intestinal lamina propria of the mice in the four groups (groups C, S, E, and ES) were examined by qRT-PCR and ELISA. The NF-κB activity in the mice in the four groups was also examined. NF-κB is a transcription factor that is involved in expression of genes regulating inflammation and is activated by exposure of immune cells to pro-inflammatory factors.

[2] = test system: LPS; assay: Plasma LPS level (LAL assay), 2 weeks; settings: group ES: 2.0% v/v ethanol diet + 2.5 mg sesaminol per day oral, vs group E, higher than group C
From the text: Acetaldehyde, which accumulates during ethanol metabolism, is known to disrupt intestinal tight junctions (TJs) via dissociation of colonic epithelium TJ proteins (ZO-1, occludin, and claudin-1) from the cytoskeleton. […] Therefore, whether oral administration of sesaminol would affect ethanol-induced intestinal barrier dysfunction was examined by analyzing the expression levels of colonic epithelial TJ proteins and the plasma LPS level in the mice in the four groups (groups C, S, E, and ES).
The plasma LPS concentration was measured with a limulus amebocyte lysate (LAL) assay.

[3] = TG amount in the liver, 4 weeks; settings: mean ±SD
Procedure: (§1) The liver function and plasma lipid level in the mice in each group were examined by measuring the percentage of the liver weight relative to the body weight, the triglyceride (TG) concentration in the liver, the aspartate aminotransferase (AST) activity in the plasma, the alanine aminotransferase (ALT) activity in the plasma, and the TG concentration in the plasma of the mice in each group.
Each liver was homogenized at 4° C., and TG was extracted according to the product protocol of a reagent kit for TG extraction from tissue (Lipid Droplet Isolation Kit, produced by Cell Biolabs, Inc.). The amounts of TG and protein in each extracted sample were quantified according to the product protocol of each measuring reagent and converted to the TG amount (mg) per protein (g) for evaluation.

[4] = AST and ALT activities and TG concentration in the plasma, 4 weeks; settings: mean ±SD
Procedure: as §1
The AST and ALT activities and TG concentration in the plasma were measured according to the product protocol using dedicated reagent kits for each test item (L-Type Wako AST, L-Type Wako ALT, and L-Type Wako TG M, produced by FUJIFILM Wako Pure Chemical Corporation).

[5] = test system: mouse gut microbiota; assay: Structural analysis of mouse gut microbiota (16S rRNA sequencing); settings: 4 weeks
Procedure: Additionally, the gut microbiota structures of the mice in each group (groups C, E, S, and ES) were analyzed.
The mouse gut microbiota 16S rRNA sequencing was outsourced to MyMetagenome Co., Ltd.
Immediately after collection, mouse feces was treated with liquid nitrogen and stored at −80° C. While the fecal samples were frozen, treatment was performed, and the extracted nucleic acids were used as samples for sequence analysis. The measurement was performed using a next-generation sequencer (NGS) (MiniSeq, Illumina, K.K.), and the results of 16S rRNA genes (the V1-V2 region) and sequences of 5,000 reads or more from the extracted nucleic acids were used for analysis. For the analysis of bacterial flora structure, raw sequence data processing and well-known sequence data analysis were performed, and the analysis was clustered at a 96% pairwise identity cutoff for 16S reads. Similarity values were assigned to the phylum and genus categories.

[6] = test system: CYP2E1; assay: Western blotting of CYP2E1 in colon tissue; settings: group ES: 2.0% v/v ethanol diet + 2.5 mg sesaminol per day oral, 2 weeks, vs group E
From the text: Chronic consumption of an excessive amount of ethanol has been reported to increase CYP2E1 and iNOS levels and cause ethanol-induced oxidative stress in the liver and other tissues. The nuclear factor erythroid 2-related factor 2/heme oxygenase-1 (Nrf2/HO-1) system has also been reported to be widely involved in the protection of cells from oxidative damage. Therefore, the expression levels of these proteins (CYP2E1, iNOS, and HO-1) in mouse colon tissue in the four groups (groups C, S, E, and ES) were examined by western blotting (WB).
A colon tissue sample (100 mg) was homogenized in 1 mL of an M-PER mammalian protein extraction reagent (Pierce) containing a diluent of a protease inhibitor cocktail (Nacalai Tesque, Inc.), and the resulting homogenate was centrifuged at 20,000× g at 4° C. for 15 minutes. The protein concentration of the supernatant was measured with a protein assay reagent (Bio-Rad Laboratories, Inc.), and equal amounts of proteins were subjected to SDS-PAGE. Electrophoresed proteins in the gel were transferred to a PVDF membrane, and the membrane was immersed in a blocking reagent (room temperature, overnight). The primary antibody (rabbit polyclonal antibody) was then reacted. […] The band intensities were quantified with ImageJ.

[7] = test system: MDA+HAE; assay: Lipid peroxide measurement (MDA+HAE) in colon tissue; settings: group ES: 2.0% v/v ethanol diet + 2.5 mg sesaminol per day oral, 2 weeks; group E highest
Procedure: Lipid peroxidation is used as an indicator of oxidative stress in cells and tissues; lipid peroxides produce MDA and HAE upon degradation. Therefore, the MDA+HAE level in colon tissue was examined as a marker of lipid peroxidation response.
A colon tissue sample (100 mg) was homogenized in 1 mL of 20 mM phosphate buffered saline (pH of 7.4) with a homogenizer and centrifuged at 3,000× g at 4° C. for 10 minutes. The resulting precipitate was examined for malondialdehyde (MDA) and 4-hydroxyalkenals (HAE) using a lipid peroxide assay kit (Oxford Biomedical Research, Inc.).

[8] = EtOH (2.0% v/v) + Sesaminol group ES
[9] = group S: 2.5 mg sesaminol per day oral, no ethanol, vs group C

Question: With `Oc1cc2c(cc1C1OCC3C(c4ccc5c(c4)OCO5)OCC13)OCO2` (centres unmarked) [Sesaminol] as the molecule, how does the “NF-κB p65 activation level” value [1] read?
Answer: Its value is “significantly lower than that in group E”.

Question: And the “plasma LPS level” value [2]?
Answer: Its value is “significantly lower than that in group E”.

Question: And the “Liver TG” value [3, 8]?
Answer: Its value is 51.8 ± 9.5 mg/g of protein.

Question: And the “Liver TG” value ([3]; Sesaminol (2.5 mg/d) group S)?
Answer: The value was 38.1 ± 12.4 mg/g of protein.

Question: What about the “Plasma ALT” value [4, 8] of the same molecule?
Answer: The value was 45.8 ± 6.6*^, †, ### U/L.

Question: What about the “Plasma AST” value [4, 8] of the same molecule?
Answer: Its value is 43.5 ± 7.6 U/L.

Question: And the “Plasma TG” value [4, 8]?
Answer: The value was 0.65 ± 0.13 mmol/L.

Question: What about the “Plasma ALT” value ([4]; Sesaminol (2.5 mg/d) group S) of the same molecule?
Answer: The value was 33.3 ± 5.7 U/L.

Question: And the “Plasma AST” value ([4]; Sesaminol (2.5 mg/d) group S)?
Answer: Its value is 41.3 ± 6.8 U/L.

Question: What about the “Plasma TG” value ([4]; Sesaminol (2.5 mg/d) group S) of the same molecule?
Answer: The value was 0.53 ± 0.14 mmol/L.

Question: And the “bacterial flora structure at the phylum level (abnormalities observed in group E: Tenericutes, Verrucomicrobia, Proteobacteria, Actinobacteria increased)” value ([5]; group ES: 2.0% v/v ethanol diet + 2.5 mg sesaminol per day oral)?
Answer: Its value is “recovered to the same level as group C”.

Question: What about the “relative abundance of the family Lachnospiraceae, the family Ruminococcaceae, and the family Tannerellaceae” value ([5]; group ES: 2.0% v/v ethanol diet + 2.5 mg sesaminol per day oral, group E significant decrease) of the same molecule?
Answer: Its value is “recovered to the same level as that in group C”.

Question: What about the “relative abundance of the family Enterobacteriaceae and the family Streptococcaceae” value ([5]; group ES: 2.0% v/v ethanol diet + 2.5 mg sesaminol per day oral, group E significant increase) of the same molecule?
Answer: Its value is “recovered to the same level as that in group C”.

Question: And the “obligate anaerobes of the phylum Bacteroidetes and the phylum Firmicutes (short-chain fatty acids-producing bacteria)” value [5, 9]?
Answer: Its value is “increase in obligate anaerobes of the phylum Bacteroidetes and the phylum Firmicutes”.

Question: What about the “short-chain fatty acid-producing bacteria of the family Lachnospiraceae, the family Ruminococcaceae, and the family Tannerellaceae” value [5, 9] of the same molecule?
Answer: The value was “increased in group S alone compared with group C”.

Question: And the CYP2E1 expression level [6]?
Answer: The CYP2E1 expression level was “significantly lower than that in group E”.

Question: And the “MDA+HAE level in colon tissue” value [7]?
Answer: Its value is “next highest value; also recorded: slightly higher than those of group C and group S”.
